From BindingDB's records for doi:10.1016/j.bmcl.2006.04.082 (Pharmacopeia Drug Discovery, 2006)

Molecular target: T1, C-X-C chemokine receptor type 2 (Homo sapiens, UniProt P25025)
T1 sequence (P25025 whole entry): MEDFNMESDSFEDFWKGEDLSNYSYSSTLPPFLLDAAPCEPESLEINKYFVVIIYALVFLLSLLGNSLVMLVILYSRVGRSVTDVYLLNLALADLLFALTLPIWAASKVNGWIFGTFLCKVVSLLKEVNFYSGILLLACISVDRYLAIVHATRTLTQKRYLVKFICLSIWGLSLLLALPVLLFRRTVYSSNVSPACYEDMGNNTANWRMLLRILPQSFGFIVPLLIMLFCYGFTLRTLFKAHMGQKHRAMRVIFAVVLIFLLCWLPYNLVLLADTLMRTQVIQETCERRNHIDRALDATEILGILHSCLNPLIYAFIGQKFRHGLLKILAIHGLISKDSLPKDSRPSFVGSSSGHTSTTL
Test: Displacement of [125I]IL8 from human CXCR2 expressed in CHO cells

Question: How did the IC50 turn out when `CC(C)Nc1c(Nc2cccc(C(=O)N(C)C)c2O)c(=O)c1=O` [2-hydroxy-3-(2-(isopropylamino)-3,4-dioxocyclobut-1-enylamino)-N,N-dimethylbenzamide] was run?
Answer: 10 nM

Question: Which IC50 does the source give for `CN(C)C(=O)c1cccc(Nc2c(NC3CCCCC3)c(=O)c2=O)c1O` [3-(2-(cyclohexylamino)-3,4-dioxocyclobut-1-enylamino)-2-hydroxy-N,N-dimethylbenzamide] here?
Answer: 10 nM
